Assay results as given in paper PMC10631261 (Chemical Science, 2023).
Read-outs that look alike come from different tables or passages of the source.

How the values were obtained:
EPO = test: qRT-PCR of EPO expression in Hep3B cells; assay type: cell-based, human; details: qPCR, relative to DMSO
Method: (§1) 4. Methods for cell studies […]
(§2) in Minimum Essential Medium (MEM, GIBCO) with 10% fetal bovine serum (FBS, BI), 100 U/mL penicillin and 100 μg/mL streptomycin (1 × P/S, NCM Biotech). […]
(§3) and 100 μg/mL streptomycin (1 × P/S, NCM Biotech).
(§4) Quantitative PCR Analysis of Gene Expression […]
(§5) treated with vehicle (DMSO) or an inhibitor (at the concentrations indicated) for 12 h. Total RNA was isolated from cells and tissues using Trizol regents (Vazyme, China). 1 μg RNA was used for reverse transcription using HiScript III RT SuperMix for qPCR (Vazyme, China). cDNAs were amplified in a ChamQ Universal SYBR qPCR Master Mix (Vazyme, China). Quantitative PCR (qPCR) was performed on […]
(§6) a ABI QuantStudio 3 system.
(§7) The relative amount of mRNA was calculated after
(§8) 3T3-L1 derived adipocytes. […]

CA9 = test: qRT-PCR of CA9 expression in Hep3B cells; assay type: cell-based, human; details: qPCR, relative to DMSO
Method: as §1, §2, §3, §4, §5, §6, §7, §8

SLC2A1 = test: qRT-PCR of SLC2A1 expression in Hep3B cells; assay type: cell-based, human; details: qPCR, relative to DMSO
Method: as §1, §2, §3, §4, §5, §6, §7, §8

FIH [1] = target: T1, FIH (Homo sapiens, UniProt Q9NWT6); details: ESI Table S1; ref 19 (ESI); cited from earlier work
T1 construct: made in house

EGLN3 [2] = test: qRT-PCR of EGLN3 expression in Hep3B cells; assay type: cell-based, human; details: for increase of EGLN3 expression relative to DMSO: 50 μM, 12 h, qRT-PCR
Method: as §1, §2, §3, §4, §5, §6, §7, §8

FIH [3] = target: T1, FIH; test: SPE-MS FIH inhibition assay; assay type: biochemical; details: for FIH inhibition potency relative to 2,4-PDCA (more potent): IC50 comparison with 2,4-PDCA
Method: (§9) Protein production and purification
(§10) PAGE analysis) according to established procedures.
(§11) FIH, PHD2, AspH, JMJD5 and KDM4A inhibition assays
(§12) The in vitro FIH,1, 2 PHD2,1 AspH,38 JMJD536 and KDM4A39 inhibition assays were performed as […]
(§13) KDM4A). Synthetic peptide substrates were used: HIF-1α C-terminal transactivation domain fragment […]
(§14) H3Lys9 bearing three methyl groups at the N ϵ position, H3Lys4 substituted by an Ala and H3Lys14 substituted by an Ile residue) for KDM4A.39 Peptides were prepared as C-terminal amides by GL Biochem (Shanghai) Ltd. Peptide hydroxylation in the case of FIH, PHD2, AspH and JMJD5 (+16 Da mass shift) or peptide demethylation in the case of KDM4A ( -14 Da mass shift) was monitored by SPE-MS. […]

AspH [4] = target: T2, AspH (Homo sapiens, UniProt Q12797); details: SPE-MS; ref [58]; cited from earlier work
KDM4A = KDM4A (Homo sapiens, UniProt O75164); test: biochemical; assay type: biochemical
Description: (§15) To investigate the potential of BNS for selective FIH inhibition, its selectivity was investigated with respect to other 2OG-dependent protein oxidising enzymes, that is PHD2, Jumonji-C domain-containing protein 5 (JMJD5), aspartate/asparagine-β-hydroxylase (AspH) and KDM4A, using reported SPE-MS inhibition assays.[58,61,69,70] In addition to PHD2 and KDM4A, we included AspH and JMJD5 in our selectivity studies, because AspH, like FIH, catalyses protein aspartate- and asparagine-residue hydroxylation (although in epidermal growth factor-like domains),[71,72] and because JMJD5 is structurally closely related to FIH.[73,74]
(§16) 3. Biochemical procedures
as §9, §10, §11, §12, §13, §14

JMJD5 = JMJD5 (Homo sapiens, UniProt Q8N371); test: biochemical
Description: as §15, §16, §9, §10, §11, §12, §13, §14

AspH [5] = target: T2, AspH; test: biochemical
Description: as §15, §16, §9, §10, §11, §12, §13, §14

PHD2 = PHD2 (Homo sapiens, UniProt Q9GZT9); test: biochemical
Method: as §16, §9, §10, §11, §12, §13, §14

EGLN3 [6] = test: qRT-PCR of EGLN3 expression in 786-O cells; assay type: cell-based; details: VHL-deficient 786-O cells
Method: as §1, §2, §3, §4, §5, §6, §7, §8

[7] = test system: 3T3-L1 derived adipocytes; test: Cellular triglyceride (TG) colorimetric assay; assay type: cell-based; details: 20 μM
Method: as §1, §2
and 100 μg/mL streptomycin (1 × P/S, NCM Biotech). […]
3T3-L1 derived adipocytes.
10% newborn calf serum (NCS, GIBCO), 100 U/mL penicillin and 100 μg/mL streptomycin (1 × P/S, NCM […]
The 3T3-L1 cells were strictly subcultured before they
Subcultures of 3T3 -L1 cells were routinely cultured in DMEM medium containing 10% NCS for two days, and then the cells were cultured in DMEM containing 10% FBS, 0.5 mM 3 -isobutyl-1-methylxanthine, 1 μM dexamethasone, 10 μg/mL insulin and 2 μM rosiglitazone for another two days. Subsequently, the cells were cultured in DMEM containing 10% FBS and 10 μg/mL insulin for two days. After these procedures, the cells were maintained in […]
To investigate the effect of inhibitors on adipocytes, 3T3-L1-derived adipocytes were treated with vehicle (DMSO) or with an inhibitor (at the concentrations indicated) for 48 h. […]
Cellular TG level assay for 3T3 -L1 derived adipocytes.
The 3T3-L1-derived adipocytes were washed with PBS, then the cells were lysed. And then, the cellular TG level was determined by using a cellular triglyceride assay kit (Applygen, China).
Oil Red O staining for 3T3-L1 derived adipocytes.

[8] = IC50 comparison with compound 20

Sequence of KDM4A (O75164 1-359): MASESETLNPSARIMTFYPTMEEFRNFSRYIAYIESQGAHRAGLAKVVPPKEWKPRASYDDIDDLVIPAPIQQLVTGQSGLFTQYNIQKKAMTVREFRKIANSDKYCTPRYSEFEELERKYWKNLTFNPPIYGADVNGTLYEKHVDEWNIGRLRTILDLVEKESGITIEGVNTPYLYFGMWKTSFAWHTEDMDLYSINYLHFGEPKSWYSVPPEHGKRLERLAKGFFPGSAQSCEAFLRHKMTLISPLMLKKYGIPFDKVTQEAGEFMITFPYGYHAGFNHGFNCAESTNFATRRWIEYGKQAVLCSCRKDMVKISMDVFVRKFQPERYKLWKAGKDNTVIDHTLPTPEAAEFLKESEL
T1 sequence (Q9NWT6 whole entry): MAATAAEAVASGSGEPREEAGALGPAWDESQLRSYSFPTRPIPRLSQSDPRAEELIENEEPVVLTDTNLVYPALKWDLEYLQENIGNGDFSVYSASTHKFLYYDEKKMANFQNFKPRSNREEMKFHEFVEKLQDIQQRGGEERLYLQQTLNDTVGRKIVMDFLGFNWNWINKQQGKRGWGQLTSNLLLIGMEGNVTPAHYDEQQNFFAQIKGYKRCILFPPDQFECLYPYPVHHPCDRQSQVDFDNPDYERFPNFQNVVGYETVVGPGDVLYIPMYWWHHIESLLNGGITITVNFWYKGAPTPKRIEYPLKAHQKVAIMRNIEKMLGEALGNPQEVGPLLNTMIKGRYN
T2 sequence (Q12797 315-758): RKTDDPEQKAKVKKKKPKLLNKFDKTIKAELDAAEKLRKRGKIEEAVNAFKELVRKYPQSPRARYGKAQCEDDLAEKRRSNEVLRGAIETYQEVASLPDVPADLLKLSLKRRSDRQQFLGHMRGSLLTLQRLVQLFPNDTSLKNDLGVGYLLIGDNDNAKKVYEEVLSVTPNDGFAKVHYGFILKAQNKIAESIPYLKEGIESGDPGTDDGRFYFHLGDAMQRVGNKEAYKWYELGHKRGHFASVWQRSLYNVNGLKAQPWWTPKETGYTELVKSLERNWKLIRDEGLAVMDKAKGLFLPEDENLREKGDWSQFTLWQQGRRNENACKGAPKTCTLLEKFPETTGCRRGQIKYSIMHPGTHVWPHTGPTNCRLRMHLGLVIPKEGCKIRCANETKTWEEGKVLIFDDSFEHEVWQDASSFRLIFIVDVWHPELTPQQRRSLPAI
Sequence of PHD2 (Q9GZT9 181-426): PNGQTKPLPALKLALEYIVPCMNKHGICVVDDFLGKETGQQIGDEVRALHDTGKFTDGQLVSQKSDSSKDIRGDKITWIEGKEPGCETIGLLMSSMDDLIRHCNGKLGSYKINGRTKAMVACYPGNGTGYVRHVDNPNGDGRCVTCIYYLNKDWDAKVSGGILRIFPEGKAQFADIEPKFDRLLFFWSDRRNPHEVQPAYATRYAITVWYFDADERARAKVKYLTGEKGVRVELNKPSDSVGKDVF
Sequence of JMJD5 (Q8N371 whole entry): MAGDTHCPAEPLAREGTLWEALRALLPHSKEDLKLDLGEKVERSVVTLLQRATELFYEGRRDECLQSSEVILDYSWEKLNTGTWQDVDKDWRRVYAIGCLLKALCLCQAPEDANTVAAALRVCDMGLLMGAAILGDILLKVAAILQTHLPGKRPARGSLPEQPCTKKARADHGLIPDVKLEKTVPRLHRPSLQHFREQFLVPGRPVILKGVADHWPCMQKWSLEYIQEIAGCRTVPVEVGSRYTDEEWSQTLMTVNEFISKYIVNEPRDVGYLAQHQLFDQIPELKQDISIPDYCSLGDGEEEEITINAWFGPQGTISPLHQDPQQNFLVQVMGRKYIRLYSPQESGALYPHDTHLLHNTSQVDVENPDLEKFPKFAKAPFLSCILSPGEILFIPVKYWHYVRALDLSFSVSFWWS

Cc1nc(C(=O)NCC(=O)O)c(O)c2ccc(Oc3ccccc3)cc12 [FG-4592]
upregulation of EPO (EPO): ~7 fold
upregulation of CA9 (CA9): ~8 fold
increase of SLC2A1 levels (SLC2A1): ~4 fold
IC50 (FIH [1]): > 100 µM
effect on Hep3B EGLN3 levels (EGLN3 [2]; compound alone): no effect

O=C(O)CNC(=O)C(=O)O [NOG, N-oxalylglycine, reference compound]
IC50 (FIH [3]): 0.36 ± 0.03 µM
IC50 (AspH [4]): 1.1 ± 0.3 µM
IC50 (KDM4A; 0.15 μM KDM4A, 10.0 μM 2OG, 10.0 μM H3 1–15 K9me3, SPE-MS): 22.1 ± 1.1 µM

O=C(O)Cc1cs/c(=N\C(=O)CCNC(=O)c2ccccc2)n1O [compound 17]
IC50 (FIH [3]): 4.6 ± 0.7 µM
loss in FIH inhibition relative to 20 (FIH [3]; [8]): ~5 fold
IC50 (KDM4A): > 100 µM
IC50 (JMJD5): 4.6 ± 1.7 µM
IC50 (AspH [5]): 28.3 ± 6.5 µM
melting point: 180 to 183 °C
IC50 (PHD2): 3.6 ± 0.4 µM

O=C(O)Cc1cs/c(=N\C(=O)CNS(=O)(=O)c2ccccc2)n1O [compound 19]
IC50 (FIH [3]): 3.7 ± 1.5 µM
loss in FIH inhibition relative to 20 (FIH [3]; [8]): ~4 fold
IC50 (KDM4A): 17.4 ± 0.2 µM
IC50 (JMJD5; read-out: JMJD5 IC50): 12 ± 0.6 µM
IC50 (AspH [5]): 3.1 ± 0.4 µM
melting point: 178 to 180 °C
IC50 (PHD2): 15.5 ± 4.6 µM

O=C(O)Cc1cs/c(=N\C(=O)C2CN(S(=O)(=O)c3ccccc3)C2)n1O [compound 24]
IC50 (FIH [3]): 0.45 ± 0.17 µM
selectivity for FIH inhibition over PHD2 inhibition (FIH [3]; as judged by IC50 values): 12 fold
IC50 (KDM4A): > 100 µM
IC50 (JMJD5; read-out: JMJD5 IC50): 29.1 ± 4.4 µM
IC50 (AspH [5]): 60.9 ± 24.1 µM
melting point: 170 to 173 °C
IC50 (PHD2): 5.2 ± 0.7 µM

CC1(C(=O)/N=c2\scc(CC(=O)O)n2O)CN(S(=O)(=O)c2ccccc2)C1 [compound 25]
IC50 (FIH [3]): 1.2 ± 0.2 µM
IC50 (KDM4A): > 100 µM
IC50 (JMJD5; read-out: JMJD5 IC50): 32.6 ± 6.7 µM
IC50 (AspH [5]): > 100 µM
melting point: 156 to 158 °C
IC50 (PHD2): 33.5 ± 1 µM

O=C(O)Cc1csc(=NC(=O)C2CCN(S(=O)(=O)c3ccccc3)C2)n1O (centres unmarked) [compound 26]
IC50 (FIH [3]): 0.5 ± 0.02 µM
selectivity for FIH with respect to PHD2, JMJD5, AspH and KDM4A inhibition (FIH [3]): > 25 fold
increase of FIH inhibition potency relative to 20 (FIH [3]; [8]): ~2 fold
selectivity for FIH inhibition over AspH inhibition (FIH [3]; as judged by IC50 values): ~75 fold
selectivity for FIH inhibition over JMJD5 inhibition (FIH [3]; as judged by IC50 values): ~25 fold
selectivity for FIH inhibition over PHD2 inhibition (FIH [3]; as judged by IC50 values): ~25 fold
IC50 (KDM4A): > 100 µM
IC50 (JMJD5; read-out: JMJD5 IC50): 12.5 ± 1 µM
IC50 (AspH [5]): 37.8 ± 11.3 µM
melting point: 185 to 187 °C
IC50 (PHD2): 12.4 ± 0.8 µM

O=C(O)Cc1csc(=NC(=O)C2CCN(S(=O)(=O)c3ccc(-c4ccccc4)cc3)C2)n1O (centres unmarked) [compound 38]
IC50 (FIH [3]): 0.26 ± 0.01 µM
FIH inhibition potency relative to 2,4-PDCA (more potent) (FIH [3]): ~10 fold
selectivity for FIH inhibition over AspH inhibition (FIH [3]; as judged by IC50 values): > 100 fold
selectivity for FIH inhibition over KDM4A inhibition (FIH [3]; as judged by IC50 values): > 300 fold
IC50 (KDM4A): > 100 µM
IC50 (JMJD5; read-out: JMJD5 IC50): 31.9 ± 2 µM
IC50 (AspH [5]): 30.2 ± 10.9 µM
melting point: 180 to 183 °C
effect on EGLN3 gene expression (EGLN3 [6]): upregulation of EGLN3
IC50 (PHD2): 3.1 ± 0.1 µM
increase of EGLN3 expression relative to DMSO (EGLN3 [2]): ~2.5 fold
EGLN3 upregulation on co-administration with FG-4592 relative to compound alone (EGLN3 [2]): greater increase

O=C(O)Cc1csc(=NC(=O)C2CCN(S(=O)(=O)c3ccc(Oc4ccccc4)cc3)C2)n1O (centres unmarked) [compound 39]
IC50 (FIH [3]): 0.29 ± 0.03 µM
FIH inhibition potency relative to 2,4-PDCA (more potent) (FIH [3]): ~10 fold
selectivity for FIH inhibition over AspH inhibition (FIH [3]; as judged by IC50 values): > 100 fold
selectivity for FIH inhibition over KDM4A inhibition (FIH [3]; as judged by IC50 values): > 300 fold
IC50 (KDM4A): > 100 µM
IC50 (JMJD5; read-out: JMJD5 IC50): 8.6 ± 0.2 µM
IC50 (AspH [5]): 29.8 ± 4.3 µM
melting point: 179 to 183 °C
effect on EGLN3 gene expression (EGLN3 [6]): upregulation of EGLN3
IC50 (PHD2): 3.1 ± 0.2 µM
increase of EGLN3 expression relative to DMSO (EGLN3 [2]): ~2.5 fold
EGLN3 upregulation on co-administration with FG-4592 relative to compound alone (EGLN3 [2]): no additional effect

O=C(O)Cc1csc(=NC(=O)C2CCN(S(=O)(=O)C3CCCC3)C2)n1O (centres unmarked) [compound 43]
IC50 (FIH [3]): 0.81 ± 0.18 µM
IC50 (KDM4A): > 100 µM
IC50 (JMJD5; read-out: JMJD5 IC50): 17.4 ± 6 µM
IC50 (AspH [5]): 35.5 ± 3.2 µM
melting point: 177 to 180 °C
IC50 (PHD2): 9.9 ± 0.5 µM

CC[C@H]1[C@@H](O)[C@@H]2[C@H](CC[C@]3(C)[C@@H]([C@H](C)CCC(=O)O)CC[C@@H]23)[C@@]2(C)CC[C@@H](O)C[C@@H]12 [obeticholic acid]
reduction in cellular TG levels [7]: 25%
